According to patent US9990464B1, “Label-free biomolecular interaction analysis using a rapid analyte dispersion injection method” (SENSIQ TECHNOLOGIES, INC., priority 2012, dated 2018):

assay: apparent (effective) diffusion coefficient from internal standard-based calibration of the dispersion model; format: physicochemical; conditions: coiled tube, 50 μL/min, 25° C.; sucrose internal standard and Equation 1 calibration by Mr
Protocol: In one example, the rapid dispersion injection method is performed in a biosensor comprising a flow channel conduit that is in fluid connection with a flow cell conduit downstream from the analyte sample injection point. The flow channel conduit is tightly coiled around a vertically-oriented support and is preferably filled with a carrier fluid free of analyte prior to the analyte sample injection. Although it is preferred to use a vertically-oriented coil, it is not essential and other configurations are possible. The flow cell conduit houses at least two sensing regions, a first sensing region having one or more ligands immobilized on its surface and a second sensing region free of ligand. A first fluid sample comprising a reference material (e.g. sucrose) of sufficient molecular weight and concentration to elicit a bulk refractive index response is injected into the flow channel conduit under conditions sufficient to cause the reference material to undergo a dispersion event in route to the flow cell thereby producing a concentration gradient. […] The bulk refractive index response of the reference material is recorded at the second sensing surface as the first fluid sample flows continuously through the flow cell thereby generating a standard curve. The standard curve provides an internal standard which acts as a witness to the particular injection conditions of that assay. The standard curve is then fitted to the dispersion model (Equations 2 and 3 described below) to calculate a reference diffusion coefficient. […]
In brief, the universal calibration function was determined by measuring the bulk refractive index response of eight different compounds of varying molecular (Mr) under twenty-seven experimental dispersion conditions. […] An apparent diffusion coefficient (D′) was obtained for the eight compounds by fitting the dispersion model defined by Equations 2 and 3 (set forth below) to each measured bulk refractive index response curve. […]

| Dapp (apparent / effective diffusion coefficient) | SMILES |
| --- | --- |
| 9.67E−10 m^2s^−1 | CC(=O)Nc1nnc(S(N)(=O)=O)s1 [Acetazolamide, acetazolamide] |
| 1.01E−09 m^2s^−1 | NS(=O)(=O)c1ccc(C(=O)O)cc1 [CBS, 4-carboxybenzenesulfonamide] |
| 8.29E−10 m^2s^−1 | NS(=O)(=O)c1cc(C(=O)O)c(NCc2ccco2)cc1Cl [Furosemide, furosemide] |
